Measurements from patent publication US20250003968A1, “ACTIVITY-BASED CELL SORTING” (MASSACHUSETTS INSTITUTE OF TECHNOLOGY, priority 2021, published 2025).
Where no end group is shown, it is not given here. [ ]: non-standard residue; d: D form. Cy5 = Cy5 fluorophore label; code o = not defined here; QSY21 = quencher dye

What was measured:
[1] = test system: Eml4-Alk lungs; experiment: In vivo administration of QZ1-(PEG2K), IVIS imaging of explanted lungs; set-up: species or system mouse; details: two hours post intravenous injection
Procedure: QZ1 (Table 4) was reconstituted to 1 mg/mL in water, then reacted with mPEG-Maleimide, MW 2000 g/mol (Laysan Bio), for PEG coupling via maleimide-thiol chemistry. After completion of the reaction, the final compound was purified using HPLC. All reactions were monitored using HPLC connected with mass spectrometry. […] Eml4-Alk mice (11-12 weeks post tumor induction) and age- and sex-matched C57BL/6J healthy controls (Jackson Labs; 18-22 weeks) were anesthetized using isoflurane inhalation (Zoetis). QZ1-(PEG2K) (4.5 nmoles in 0.9% NaCl) was administered intravenously via tail vein injection. Two hours after probe injection, mice were imaged on an in vivo imaging system (IVIS, PerkinElmer) by exciting Cy5 at 640 nm and measuring emission at 680 nm. Mice were subsequently euthanized by isoflurane overdose followed by cervical dislocation. Lungs were dissected and explanted for imaging via IVIS. Fluorescence signal intensity was quantified using the Living Image software (PerkinElmer, v4).

[2] = test system: CD45-, CD11b- cells from lungs; experiment: Activity-based cell sorting / flow cytometry after QZ1 administration; assay type: in vivo, mouse
Procedure: Eml4-Alk mice (10-12 weeks post tumor induction) and age- and sex-matched C57BL/6J healthy controls (Jackson Labs; 18-22 weeks) were euthanized by isoflurane overdose, and lungs were excised, separated into lobes, and kept in a round cell culture dish (ThermoFisher) on ice. For tumor-bearing lungs, tumors were separated from healthy tissue using forceps and scissors under a dissecting microscope, and the dissected tumors and surrounding tissue were kept in 5 mL Eppendorf tubes (Sigma Aldrich) for preparation into single-cell suspension. Tissue was minced using Noyes spring scissors (Fine Science Tools) until pieces were less than 1 cm in size, with the visual appearance of ground meat. […]
Single cell lung suspensions from Eml4-Alk mice administered QZ1 were stained with the following antibodies (catalog number, vendor, clone, fluorophore, dilution): CD44 (563508, BD, IM7, BV605, 1:200), CD105 (564746, BD, MJ7/18, BV786, 1:200), Ly6-A/E (12-5981-81, ThermoFisher, D7, PE, 1:200), CD11b (557657, BD, M1/70, APC-Cy7, 1:200), CD45 (566439, BD, 30-F11, AF488, 1:400), and EpCAM (118216, BioLegend™, G8.8, PE-Cy7, 1:200). […] Flow cytometry data was analyzed by the FlowJo software (Treestar). […]

[3] = target: T1, recombinant fibroblast activation protein (FAP) (Homo sapiens, UniProt Q12884); experiment: Quenched probe cleavage by recombinant FAP (fluorescence activation); assay type: biochemical; details: quenched probe Q1 incorporating S1
T1 sequence (Q12884 26-760 limits assumed): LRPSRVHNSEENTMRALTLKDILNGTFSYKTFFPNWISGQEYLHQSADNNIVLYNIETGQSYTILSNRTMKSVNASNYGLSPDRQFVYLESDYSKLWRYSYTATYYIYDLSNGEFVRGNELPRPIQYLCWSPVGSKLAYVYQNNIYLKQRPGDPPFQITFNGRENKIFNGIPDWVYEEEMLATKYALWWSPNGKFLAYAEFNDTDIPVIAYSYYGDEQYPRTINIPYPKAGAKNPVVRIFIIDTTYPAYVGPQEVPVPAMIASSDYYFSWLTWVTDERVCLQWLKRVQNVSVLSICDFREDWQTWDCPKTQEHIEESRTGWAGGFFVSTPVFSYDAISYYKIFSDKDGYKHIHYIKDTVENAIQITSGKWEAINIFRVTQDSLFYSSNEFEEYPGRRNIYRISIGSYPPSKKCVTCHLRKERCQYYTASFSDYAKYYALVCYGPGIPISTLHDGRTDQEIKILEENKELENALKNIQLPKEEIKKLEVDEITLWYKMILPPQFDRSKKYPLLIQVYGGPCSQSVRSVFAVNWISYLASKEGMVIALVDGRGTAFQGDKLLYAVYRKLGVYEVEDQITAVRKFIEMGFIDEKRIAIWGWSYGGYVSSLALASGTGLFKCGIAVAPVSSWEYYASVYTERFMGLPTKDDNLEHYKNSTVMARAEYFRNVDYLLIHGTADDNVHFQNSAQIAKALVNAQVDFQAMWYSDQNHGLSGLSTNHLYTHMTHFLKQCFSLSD
Procedure: FIG. 10. Fibroblast activation protein (FAP) cleaves S1 in vitro. The quenched probe Q1, incorporating the substrate S1, was incubated with recombinant FAP, and fluorescence activation was monitored over time (n=2 replicates; mean t s.d.).

Row | Substance | Cy5 fluorescence in explanted Eml4-Alk lungs relative to healthy lungs [1] | QZ1 staining in cells positive for mesenchymal cell markers ([2]; Eml4-Alk lungs, CD44, CD105, Ly-6A/E) | QZ1 staining in cells positive for mesenchymal cell markers ([2]; healthy lungs, separate experiment) | cleavage by FAP in vitro [3]
1 | (QSY21)-eeeeeeeee-c(PEG2K)-oGGPQGIWGQG-rrrrrrrrr-k(Cy5) (QSY21-[dE][dE][dE][dE][dE][dE][dE][dE][dE][dC](PEG2K)[code o]GGPQGIWGQG[dR][dR][dR][dR][dR][dR][dR][dR][dR][dK](Cy5); reading uncertain; also: X11: 5-amino-3-oxopentanoyl, other spacer, or absent, printed as (QSY21)-eeeeeeeee-c(PEG2K)-oGGPQGIWGQG-rrrrrrrrr-k(Cy5)) [QZ1, PEGylated quenched probe] | significantly increased | increased QZ1 staining | more variable pattern | 
2 | GGPQGIWGQC [S1] |  |  |  | cleaves
